Results on twelve compounds are retold here after US6579882B2, “Cell adhesion-inhibiting antiinflammatory compounds” (Abbott Laboratories, priority 1998, dated 2003).

One data set deals with VCAM-1. The data set is described as follows: CAM ELISA: VCAM-1 expression on TNF-stimulated HUVECs. Conditions: 1 μM compound, primary human umbilical vein endothelial cells, compound 24 hours, then TNF 5 ng/mL 6 hours; for inhibition at 1 µM: Homo sapiens, Endothelial cell. Format: cell-based. The procedure, abridged:
(§1)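 Pooled primary HUVECs (passages 3–7), hydrocortisone-free medium, pretreated 24 h with compound at 37° C, then stimulated with TNF 5 ng/mL for 6 h. Surface VCAM-1, ICAM-1 or E-selectin measured by cell ELISA: specific mouse primary antibody, HRP anti-mouse secondary, OPD development, absorbance at 490 nm.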
(In general: In an ELISA, binding on a coated surface is turned into a signal by an enzyme label.)

The subject of another data set is E-Selectin. The data set is described as follows: CAM ELISA: E-selectin expression on TNF-stimulated HUVECs. Conditions: 1 μM compound, primary human umbilical vein endothelial cells, compound 24 hours, then TNF 5 ng/mL 6 hours; for inhibition at 1 µM: Homo sapiens, Endothelial cell. Format: cell-based. The gist of the method: as §1
Another data set relates to ICAM-1. Kind of data set: CAM ELISA: ICAM-1 expression on TNF-stimulated HUVECs. Format: cell-based. The settings on record: 1 μM compound, primary human umbilical vein endothelial cells, compound 24 hours, then TNF 5 ng/mL 6 hours; for inhibition at 1 µM: Homo sapiens, Endothelial cell. The procedure, abridged:
as §1

With `Cn1c(N)nnc1-c1cc2c(Oc3ccc(Cl)cc3)cncc2s1` [Example 283, 5-[4-(4-Chlorophenoxy)thieno[2,3-c]pyridin-2-yl]-4-methyl-4H-1,2,4-triazol-3-amine], the melting point (as a rule, the temperature of the solid-liquid transition) fell in the range of 233 to 235 °C. For the same compound, in the data set on VCAM-1, 1 µM produced 52% inhibition. Moreover, the inhibition (as a rule, the change of the read-out against control, counted positive when it falls) at 1 µM in the data set with E-Selectin was determined as 39%. The inhibition at 1 µM with ICAM-1 was determined as 57%.

In the case of `CNc1nnc(-c2cc3c(Oc4ccc(Cl)cc4)cncc3s2)s1` [Example 286, 5-[4-(4-Chlorophenoxy)thieno[2,3-c]pyridin-2-yl]-N-methyl-1,3,4-thiadiazol-2-amine], the melting point was in the range of 226 to 229 °C. Also, 1 µM produced 46% inhibition with VCAM-1. Moreover, 1 µM produced 54% inhibition in the data set with E-Selectin. The same compound came in with an inhibition at 1 µM with ICAM-1 of 64%.

`NNC(=O)c1cc2c(Oc3ccc(C(F)(F)F)cc3)cncc2s1` [Example 158, 4-[4-(Trifluoromethyl)phenoxy]thieno[2,3-c]pyridine-2-carbohydrazide] gave a melting point of 146 to 147 °C. The same compound returned an inhibition at 1 µM with VCAM-1 of 26%. The compound also gave an inhibition at 1 µM in the data set on E-Selectin of 61%. This compound displayed an inhibition at 1 µM with ICAM-1 of 65%.

In turn, `NC(=O)c1cc2c(Sc3ccccn3)cncc2s1` [Example 20, 4-(2-pyridinylthio)thieno[2,3-c]pyridine-2-carboxamide] came in with a melting point of 239 to 242 °C. Besides, in the data set on VCAM-1, the inhibition at 1 µM stood at 26%. For the same compound, in the data set on E-Selectin, the inhibition at 1 µM turned out to be 55%. In the data set on ICAM-1, this compound registered an inhibition at 1 µM of 46%.

The compound `Nc1ccc(-c2cc3c(Oc4ccc(Cl)cc4)cncc3s2)cn1` [Example 274, 5-[4-(4-Chlorophenoxy)thieno[2,3-c]pyridin-2-yl]-2-pyridinamine] registered a melting point of 208 to 210 °C. Also, testing at 1 µM with VCAM-1 gave an inhibition of 44%. The inhibition at 1 µM in the data set with E-Selectin was found to be 65%. The compound also showed an inhibition at 1 µM in the data set on ICAM-1 of 71%.

The compound `Nc1noc(-c2cc3c(Oc4ccc(Cl)cc4)cncc3s2)n1` [Example 285, 5-[4-(4-Chlorophenoxy)thieno[2,3-c]pyridin-2-yl]-1,2,4-oxadiazol-3-amine] came in with a melting point of 217 to 219 °C. For the same compound, in the data set with VCAM-1, the inhibition at 1 µM turned out to be 50%. The same compound displayed an inhibition at 1 µM with E-Selectin of 56%. In the data set on ICAM-1, this compound returned an inhibition at 1 µM of 65%.

The compound `FC(F)(F)c1nc(-c2cc3c(Oc4ccc(Cl)cc4)cncc3s2)no1` [Example 284, 4-(4-Chlorophenoxy)-2-[5-(trifluoromethyl)-1,2,4-oxadiazol-3-yl]thieno[2,3-c]pyridine] displayed a melting point of 52 to 54 °C. In addition, testing at 1 µM with VCAM-1 gave an inhibition of 45%. In the data set on E-Selectin, this compound displayed an inhibition at 1 µM of 56%. In the data set on ICAM-1, this compound showed an inhibition at 1 µM of 68%.

Turning to `O=C(NCCO)c1cc2c(Oc3ccc(Cl)cc3)cnc(Cl)c2s1` [Example 313, 7-Chloro-4-(4-chlorophenoxy)-N-(2-hydroxyethyl)thieno[2,3-c]pyridine-2-carboxamide], the melting point lay in the range of 129 to 132 °C. This compound returned an inhibition at 1 µM in the data set on VCAM-1 of 39%. The compound also yielded an inhibition at 1 µM in the data set with E-Selectin of 57%. The compound also had an inhibition at 1 µM in the data set on ICAM-1 of 68%.

In turn, `NC(=O)/C=C/c1cc2c(Oc3ccc(Br)cc3)cncc2s1` [Example 259, (E)-3-[4-(4-Bromophenoxy)thieno[2,3-c]pyridin-2-yl]propenamide] showed a melting point of 195 to 196 °C. This compound yielded an inhibition at 1 µM in the data set on VCAM-1 of 57%. The compound further registered an inhibition at 1 µM in the data set with E-Selectin of 63%. In addition, the inhibition at 1 µM with ICAM-1 worked out at 59%.

In the case of `CCOCCOCCOCC1(c2ccc(Oc3cncc4sc(-c5nnc(N)o5)cc34)cc2)CC1` [Example 228, 5-{4-[4-(1-{[2-(2-Ethoxyethoxy)ethoxy]methyl}cyclopropyl)phenoxy]thieno[2,3-c]pyridin-2-yl}-1,3,4-oxadiazol-2-amine], the melting point was 113 to 114 °C. Moreover, in the data set on VCAM-1, the “CAM ELISA % Inhibition at 1 μM VCAM-1” value was found to be 52% and the inhibition at 1 µM amounted to 54%. Also, in the data set with E-Selectin, the “CAM ELISA % Inhibition at 1 μM E-Selectin” value is on record as 67% and at 1 µM the inhibition was 70%. Moreover, in the data set on ICAM-1, the “CAM ELISA % Inhibition at 1 μM ICAM-1” value is 64% and the inhibition at 1 µM was 68%.

`NC(=O)c1cc2c(SCc3ccc(Cl)cc3)cncc2s1` [Example 54, 4-[[(4-chlorophenyl)methyl]thio]thieno[2,3-c]pyridine-2-carboxamide]: the melting point lay in the range of 198 to 199 °C. The inhibition at 1 µM in the data set with VCAM-1 was found to be 33%. Moreover, the inhibition at 1 µM with E-Selectin came out at 74%. In the data set on ICAM-1, the inhibition at 1 µM was determined as 59%.

For the compound `NC(=NO)c1cc2c(Oc3ccc(Cl)cc3)cncc2s1` [Example 249, 4-(4-Chlorophenoxy)-N′-hydroxythieno[2,3-c]pyridine-2-carboximidamide], the melting point was 194 to 196 °C. In the data set with VCAM-1, at 1 µM the inhibition was 61%. Moreover, the inhibition at 1 µM in the data set on E-Selectin is 75%. This compound showed an inhibition at 1 µM in the data set on ICAM-1 of 69%.
